In brackets after ≈: the same amount, converted by molar mass. Entries after “also recorded” stand apart in the source; their conditions may differ.
Columns and labels:
live bait worms [1] = assay: Coloring and viability of live bait worms kept in peat loam medium mixed with colorant (8 oz cup, 12 worms); format: in vivo; conditions: for Effectiveness as worm coloring agent (coloration of worms) / Worm viability / mortality: powdered colorant in peat loam, 8 oz cup, inspected at 24 hrs, 36 hrs, 3-4 weeks
From the text: The inventor conducted numerous experiments to determine the effectiveness of a number of color additives to color live bait worms.
Experimental procedure. Each powdered colorant was mixed with peat loam medium and added to an 8 oz cup containing 12 healthy and natural worms. Concentrations given as mg colorant per 8 oz cup containing about 120 g peat loam. Worms were inspected for color and viability 24 hrs., 36 hrs., and when still viable, 3-4 weeks later.

[2] = Solubility of colorant in water; conditions: at 25° C.
live bait worms [3] = assay: Incubation and storage of worms in bait cup topped with coloring medium; format: in vivo; conditions: 8-24 worms, 8 to 12 ounce cup, coloring medium 5 g colorant per kg, stored at 34° F. to 38° F.
Method: Alternatively, after the incubation, the above bulk colored worms can be divided into smaller amounts and stored in actual point-of-sale containers ready for use as bait by the end user rather than in bulk containers. For example, 8-24 of the worms previously colored in bulk as described above can be added to a normal 8 to 12 ounce Styrofoam, paper, or plastic bait cup and topped with the coloring medium (containing 5 g colorant D&C Yellow 8 per kg of the storage medium). When the container is capped with a lid and stored at 34° F. to 38° F., the worms will remain viable, and colored for about four to six weeks and are ready for immediate use as bait.
In another application of the process, the incubation and storage can be carried out in the same vessel. […]. In this case, the regular, uncolored, worms require an initial incubation period of about one week to lapsed before the worms acquire the desired color and intensity to be used as colored bait worms. The worms will then remain colored and viable in the bait cup of about four to six weeks. In both examples, the worms can be kept viable and colored indefinitely, if required, simply by changing the coloring medium once it has been consumed.

[4] = mg colorant per 8 oz cup containing about 120 g peat loam, 12 worms
[5] = 12 worms, listed as D&C Yellow No. 8

| Compound | Effectiveness as worm coloring agent (coloration of worms) (live bait worms [1]; 12 worms) | Worm viability / mortality (live bait worms [1]; 12 worms) | Solubility in water [2] | also measured |
| --- | --- | --- | --- | --- |
| O=C1/C(=C2\Nc3ccc(S(=O)(=O)[O-])cc3C2=O)Nc2ccc(S(=O)(=O)[O-])cc21.[Na+].[Na+] [FD & C Blue 2] | No colorization. Worms | remain viable | 2 mg/mL | – |
| O=S(=O)([O-])c1ccc(N=Nc2c(O)ccc3cc(S(=O)(=O)[O-])ccc23)cc1.[Na+].[Na+] [FD & C Yellow 6] | No coloration. Worms | remain viable | – | – |
| CCN(Cc1cccc(S(=O)(=O)[O-])c1)c1ccc(C(=C2C=CC(=[N+](CC)Cc3cccc(S(=O)(=O)[O-])c3)C=C2)c2ccccc2S(=O)(=O)[O-])cc1.[Na+].[Na+] [FD & C Blue 1] | main blue. Worms | viable if carefully | – | – |
| O=C([O-])c1c(Cl)c(Cl)c(Cl)c(Cl)c1-c1c2cc(Br)c(=O)c(Br)c-2oc2c(Br)c([O-])c(Br)cc12.[Na+].[Na+] [D & C Red 28] | Worms become pinkish | mg. Increased mortality | – | Concentration range in which worms become colored (live bait worms [1]; [4]): tration between 50-800 mg |
| COc1cc(S(=O)(=O)[O-])c(C)cc1N=Nc1c(O)ccc2cc(S(=O)(=O)[O-])ccc12.[Na+].[Na+] [FD & C Red 40] | No coloration. Worms | remain viable | 22 mg/mL | – |
| O=C1OC2(c3ccc([O-])cc3Oc3cc([O-])ccc32)c2ccccc21.[Na+].[Na+] [D & C Yellow 8, uranine] | main bright Chartreuse | very healthy and viable | – | Amount at which dye remains non-toxic to worms (live bait worms [1]; bait cup containing 12 worms): about 2500 mg/8 ounce bait cup; Amount at which dye remains non-toxic, per worm (live bait worms [1]; from 2500 mg/8 ounce cup with 12 worms): about 150 mg dye per worm; Concentration at which worms remain very healthy and viable (live bait worms [1]; [4]): centration of >2500 mg.; Lowest concentration at which worms become and remain colored (live bait worms [1]; [4]): ≤ 25 mg. Preferred range; Effectiveness as worm coloring agent (coloration of worms) (live bait worms [1]; [5]): intense fluorescent chartreuse color; Worm viability / mortality (live bait worms [1]; [5]): non-toxic to worms; also recorded: not detrimental to the viability of the worms; Time worms remain viable and colored in bait cup (live bait worms [3]): about four to six |
| O=C(O)c1nn(-c2ccc(S(=O)(=O)O)cc2)c(O)c1N=Nc1ccc(S(=O)(=O)O)cc1 [FD & C Yellow 5] | Color not retained. | Worms remain viable | 20 mg/mL (≈ 42.7 mM) | – |
